{"source": "patent US20190160035A1", "about": "“METHOD OF TREATMENT” (QBIOTICS LIMITED, priority 2016, published 2019)", "system": "cutaneous MCT or subcutaneous MCT", "assay": "Example 1: RECIST v.1.1 tumor response after a single intratumoral Compound 1 injection (0.4 mL/cm^3 of tumor) with prophylactic and supportive medications", "format": "in vivo, Canis lupus familiaris (dog)", "excerpt": "Study dogs were managed similarly and with due regard for their welfare. Animals were enrolled in the study in accordance with instructions provided in Australian Pesticides and Veterinary Medicines Authority (APVMA) small-scale trials permit PER7250 (unregistered drug use). All animals were client-owned, treated by Australian registered veterinarians, and cases managed under their direct supervision. An enrolled dog could be removed from the study prior to study completion under the following circumstances: • 1. If at any time during the study, in the opinion of the attending veterinarian, the dog's welfare is at risk due to non-response of the tumor to Compound 1 treatment or due to a serious adverse event, the veterinarian could elect to withdraw the dog from the study. Following withdrawal, the dog's attending veterinarian could then administer supportive treatment and veterinary care that they deem is appropriate and in the best interest of the animal. • 2. The owner elected to voluntarily withdraw the dog from the study.\nDogs were selected for the study if they met the criteria in Table 1 below.\nCompound 1 was prepared for intratumoral injection by preparation of a composition comprising 1 mg/mL Compound 1 in a 40% propylene glycol solution with 30 mM acetate buffer, pH 4.2. The dosage level was 0.4 mL/cm^3 of tumor.\nThe drug was administered to each dog as 0.4 mL per cm^3 of tumor volume (40% v/v tumor) as determined on the day of dosing (Day 0). Tumor volume was determined using the modified ellipsoidal calculation=½×length×width×depth (cm) (Monga et al, 2000; Celikoglu et al, 2008).\nWherever possible, the tumor and a 2 cm border surrounding the tumor was shaved prior to treatment. To deliver the drug, the needle of the dosing syringe was inserted into the tumor at the injection point and moved in a radial manner in 2- and 3-dimensions. Treatment administration was recorded on the individual “Case Report Form”. Study dogs were clinically examined at 2-4 and 24 hours, and 7 (±2), 14 (±2) and 28 (±2) days post-treatment (and unscheduled visits at attending veterinarian discretion).\nEach supervising veterinarian was given latitude to provide and record prophylactic and supportive medications as deemed appropriate for managing potential paraneoplastic events and tumor site necrosis following treatment with Compound 1. […]\nDetermination of efficacy was based on objective tumor measurements made according to the Response Evaluation Criteria in Solid Tumors (RECIST) v.1.1 guideline (Eisenhauer et al, 2009) using the longest unidirectional tumor measurement (diameter). […] Measurements were recorded using digital calipers at pre-treatment and at 7(±2), 14(±2) and 28(±2) days post treatment. […]"}
{"molecule": "C/C=C(\\C)C(=O)O[C@@H]1[C@@H](C)[C@@]2(O)[C@H]([C@@H]3C(C)(C)[C@]13OC(=O)[C@@H](C)CC)[C@@H]1O[C@]1(CO)[C@@H](O)[C@]1(O)C(=O)C(C)=C[C@H]12", "note": "[Compound 1, 12-tigloyl-13-(2-methylbutanoyl)-6,7-epoxy-4,5,9,12,13,20-hexahydroxy-1-tigliaen-3-one]", "values": [{"measurement": "Number of dogs with partial response (PR)", "setting": "Day 28, 11 dogs available of 12 treated", "result": 3}, {"measurement": "Number of dogs with complete response (CR)", "setting": "Day 28, 11 dogs available of 12 treated, 1.0 mg/mL, 0.4 mL/cm^3", "result": 6}, {"measurement": "Tumor cytology in the autopsied injection site", "setting": "dog C03-T-07, Day 4, personal correspondence with attending veterinarian", "result": "no tumor cytology was identified"}, {"measurement": "RECIST classification", "setting": "one value per dog, Day 28, single intratumoral dose, 1.0 mg/mL, 0.4 mL/cm^3 tumor", "result": "PR (partial response (PR, at least 30% decrease in the longest diameter of target lesion))"}]}
